Measurements published in US20250296942A1, “Phosphonate-Based Coordination Complexes and Methods of Preparation and Use Thereof” (University of Puerto Rico, priority 2021, published 2025).
Values joined by “and” are separate entries in the source; they are usually repeats but may differ in a detail not shown here. Equal values may be shown once. Read-outs that look alike come from different tables or passages of the source.

Columns and labels:
[1] = Hydroxyapatite (HA) binding assay of RISE and nano-Ca@RISE
Method: Hydroxyapatite (HA) binding assay. For the binding assay of nano-Ca@RISE, 20 mg of hydroxyapatite (HA) were exposed to 3 mL of a nano-Ca@RISE in PBS solution (0.5 mg/mL), for 0-11 days at 37° C. As control groups, RISE and HA, both in PBS, were employed. Samples were collected each day from 11 consecutive days. After each time point, the supernatant was collected and centrifuged (1,500 rpm, 8 min). […]
The capacity of nano-Ca@RISE to bind to the main constituent of the bone microenvironment, HA, under simulated physiological conditions, was evaluated through a binding assay. […]. […] […]. Therefore, a calibration curve of nano-Ca@RISE in PBS was employed for quantification of the nanocrystal's concentration in the supernatant after the binding assay.
For the nano-Ca@RISE binding assay, 20 mg of hydroxyapatite (HA), were added to 3.00 mL of nano-Ca@RISE (0.5 mg/mL) in PBS solution. HA in PBS mixture, and the binding of RISE to HA, were used as control groups. The samples were left for 0-11 days at 37° C. and 300 rpm. As a comparative method, additional binding assay for RISE “as received” was conducted employing the same parameters as for the nanocrystals. The selected time points were: 1, 2, 3, 4, 5, 7, 8, 9, 10, and 11 days. The supernatant was collected after each time point, then centrifuged (1,500 rpm, 8 min), and absorbance measurements were performed at 206 nm to determine the binding percentage of RISE from the nano-Ca@RISE to HA. FIGS. S8.6.1 and S8.6.2 illustrate the binding curves of RISE and nano-Ca@RISE to HA in PBS.

[2] = tested on: human breast cancer MDA-MB-231 cell line; test: AlamarBlue cytotoxicity, RISE and nano-Ca@RISE, MDA-MB-231; format: cell-based; details: for viability at 35 µM / viability at 40 µM / viability at 45 µM / viability at 50 µM / IC50: Homo sapiens; for viability at 35 µM / viability at 40 µM / viability at 45 µM / viability at 50 µM: read-out: Relative cell viability (% RCL), MDA-MB-231
Method: Cell culture methods. The MDA-MB-231 cell line was incubated with DMEM, 1% Pen-Strep, and 10% FBS at 37° C. in 5% CO2. The hFOB 1.19 cell line was incubated with 1:1 DMEM:F-12, 0.3 mg/mL G418, and 10% FBS at 34° C. in 5% CO2. Cell passages were performed weekly at 80% of cell confluency, media was exchanged twice a week.
Cell treatments. Both cell lines were treated with RISE (control) and nano-Ca@RISE (experimental). […]. Both cell lines (MDA-MB-231 and hFOB 1.19) were seeded in 96 well plates at 2.5×10^5 cell/mL. The cells were incubated for 24 h at 37° C. (MDA-MB-231) and 34° C. (hFOB 1.19), respectively. After the initial incubation period, both cell lines were treated with 100 μL of the RISE solutions previously prepared, and incubation was performed for 24, 48, and 72 h at the respective incubation temperatures. For both cell lines, media (MDA-MB-231: DMEM, Pen-Strep) and (hFOB 1.19: DMEM, F-12, G418) were used with control groups. AlamarBlue® assay was utilized to determine cell proliferation, for this, 10% of AlamarBlue® solution in PBS was prepared. Finally, the media was removed from the 96 well plates, 100 μL of 10% AlamarBlue® solution was added, and the cells were incubated for 4 h at the same previously mentioned conditions. After the AlamarBlue® assay, the fluorescence (λexc=560 nm, λem=590 nm) was evaluated employing an Infinite M200 PRO Tecan Microplate Reader. […]. The nonlinear regression method using Graph Pad Prism 8 was applied to fit the dose-response curves (% cell live vs concentration) and determined the IC50 values for RISE.
[…]. Treatments at these concentrations were carried out at 24, 48, and 72 h for RISE and nano-Ca@RISE. The cell seeding and AlamarBlue® assay were completed as described above for the IC50 determination in both cell lines. […]. All experiments were performed in triplicates and the data was statistically treated using mean, standard deviation, and the coefficient of variation percentage (% CV).
Cell culture methods for the MDA-MB-231 cell line. This cell line was grown in Dulbecco's Modified Eagle's Medium (DMEM) supplemented with 10% fetal bovine serum (FBS) and 1% penicillin-streptomycin (Pen-Strep), incubated at 37° C. and 5% CO2. Cell passage and cell treatment were performed at 80% of cell confluency. The completed growth media was exchanged every two days.
Cell seeding. The MDA-MB-231 and hFOB 1.19 cell lines were seeded in 96 well plates at a density of 2.5×10^5 cells/mL, incubation was carried out for 24 h at 37° C. for MDA-MB-231 and 34° C. for osteoblast hFOB 1.19, in 5% CO2. The experiments were conducted in triplicates, three 96 well plates were made for each treatment period (24, 48, and 72 h).
Cell treatment. To determine the half-maximal inhibitory concentration (IC50), for both cell lines, two-fold serial dilutions of RISE (0-200 μM) were prepared. To assess the relative cell live (% RCL) were employed selected […] (50, 45, 40, and 35 μM) of RISE and nano-Ca@RISE for MDA-MB-231 and hFOB 1.19 cell lines. For this, after the seeding, 100 μL of RISE and nano-Ca@RISE were used to treat the cells. The control groups were treated with just media. Both cell lines were incubated for 24, 48, and 72 h after RISE and nano-Ca@RISE solutions were added.
AlamarBlue@assay. For both cell lines, after the 24, 48, and 72 h of treatment, the media was removed from the 96 well plates. Subsequently, 100 μL of 10% AlamarBlue® solution was added and incubation was carried out for 4 h. The fluorescence (λexc=570 nm, λem=590 nm) was measured employing an Infinite M200 PRO Tecan Microplate Reader. […]. The IC50 curves and the % RCL values were plotted using the Graph Pad Prism 8 program.

O=P(O)(O)C(O)(Cc1cccnc1)P(=O)(O)O [RISE, Monosodium risedronate hemipentahydrate]
time to reach maximum binding to HA ([1]; PBS): 8 days | maximum binding to HA ([1]; PBS pH 7.40, 37 °C, 0-11 days): 76% | bound to HA ([1]; PBS pH 7.40, 37 °C, 1 day): 18% and 17% | viability at 35 µM ([2]; MDA-MB-231, 24 h, 35 μM, 24 h): 101 ± 2% | viability at 40 µM ([2]; MDA-MB-231, 24 h, 40 μM, 24 h): 100 ± 2% | viability at 45 µM ([2]; MDA-MB-231, 24 h, 24 h): 100 ± 2% | viability at 50 µM ([2]; MDA-MB-231, 24 h, 24 h): 99 ± 2% | viability at 35 µM ([2]; MDA-MB-231, 48 h, 35 μM, 48 h): 100 ± 2% | viability at 40 µM ([2]; MDA-MB-231, 48 h, 40 μM, 48 h): 100 ± 3% | viability at 45 µM ([2]; MDA-MB-231, 48 h, 48 h): 98 ± 2% | viability at 50 µM ([2]; MDA-MB-231, 48 h, 48 h): 97 ± 3% | viability at 35 µM ([2]; MDA-MB-231, 72 h, 35 μM, 72 h): ~100% | viability at 40 µM ([2]; MDA-MB-231, 72 h, 40 μM, 72 h): 94 ± 1% | viability at 45 µM ([2]; MDA-MB-231, 72 h, 72 h): 94 ± 2% | viability at 50 µM ([2]; MDA-MB-231, 72 h, 72 h): 93 ± 2% | IC50 ([2]; MDA-MB-231, 24 h): > 200 µM | IC50 ([2]; MDA-MB-231, 48 h): 175 ± 3 µM | IC50 ([2]; MDA-MB-231, 72 h): 98 ± 3 µM | Relative cell viability (% RCL) ([2]; MDA-MB-231, 35 μM, 72 h): 96 ± 2% | % RCL ([2]; MDA-MB-231, 40 μM, time not stated): ~100%
